# Activity calls are given as the source filed them.
# Columns and labels:
# [1] = (§1) Counterscreen for antagonists of the orexin 1 receptor (OX1R; HCRTR1): Fluorescence-based cell-based high throughput dose response assay to identify antagonists of the parental CHO cell line. [Related pubchem assays (depositor defined):AID434989, AID435008, AID463079, AID485270, AID492963, AID492964, AID492965, AID493232, AID504699, AID504701]; format: functional
# Orexin receptor type 2 [2] = target: T1, Orexin receptor type 2 (Homo sapiens, UniProt O43614); experiment: Counterscreen assay for antagonists of the orexin 1 receptor (OX1R; HCRTR1): Fluorescence-based cell-based dose response assay for antagonists of the orexin 2 receptor (OX2R; HCRTR2), run by assay provider.; format: functional
# T1 sequence (O43614 whole entry): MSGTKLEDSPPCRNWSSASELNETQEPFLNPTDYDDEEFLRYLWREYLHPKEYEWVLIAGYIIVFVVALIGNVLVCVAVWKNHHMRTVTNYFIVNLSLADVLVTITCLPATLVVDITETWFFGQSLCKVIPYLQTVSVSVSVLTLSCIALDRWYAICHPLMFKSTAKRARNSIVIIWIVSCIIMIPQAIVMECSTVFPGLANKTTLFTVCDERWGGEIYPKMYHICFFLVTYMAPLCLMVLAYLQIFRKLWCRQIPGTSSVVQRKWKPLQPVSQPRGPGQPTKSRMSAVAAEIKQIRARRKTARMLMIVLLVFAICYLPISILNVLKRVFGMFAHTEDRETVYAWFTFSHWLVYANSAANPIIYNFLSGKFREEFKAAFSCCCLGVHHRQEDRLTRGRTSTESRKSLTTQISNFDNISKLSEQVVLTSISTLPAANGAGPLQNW
# Cytochrome P450 1A2 = target: T2, Cytochrome P450 1A2 (Homo sapiens, UniProt P05177);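 also: PubChem cytochrome P450 panel assay, CYP1A2 panel member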
# T2 sequence (P05177 whole entry): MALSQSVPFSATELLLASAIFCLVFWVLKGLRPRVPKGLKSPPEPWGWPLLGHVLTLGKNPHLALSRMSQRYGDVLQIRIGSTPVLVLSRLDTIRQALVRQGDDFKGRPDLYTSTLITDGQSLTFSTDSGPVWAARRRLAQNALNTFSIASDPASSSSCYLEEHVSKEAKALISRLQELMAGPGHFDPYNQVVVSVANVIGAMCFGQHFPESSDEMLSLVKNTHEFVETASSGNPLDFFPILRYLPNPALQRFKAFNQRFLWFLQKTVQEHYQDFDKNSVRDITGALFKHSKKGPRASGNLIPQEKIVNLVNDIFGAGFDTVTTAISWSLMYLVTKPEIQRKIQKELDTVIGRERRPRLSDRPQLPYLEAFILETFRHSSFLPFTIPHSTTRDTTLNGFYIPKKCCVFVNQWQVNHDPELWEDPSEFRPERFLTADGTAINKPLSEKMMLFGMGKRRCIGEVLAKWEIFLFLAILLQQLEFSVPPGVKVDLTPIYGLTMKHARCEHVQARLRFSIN
# [3] = target: T3, Orexin/Hypocretin receptor type 1 (Homo sapiens, UniProt O43613); experiment: (§2) Fluorescence-based cell-based high throughput dose response assay for antagonists of the orexin 1 receptor (OX1R; HCRTR1). [Related pubchem assays (depositor defined):AID434989, AID435008, AID463079, AID485270, AID492963, AID492964, AID492965, AID493232, AID504717, AID504718]; format: functional
# T3 sequence (O43613 whole entry): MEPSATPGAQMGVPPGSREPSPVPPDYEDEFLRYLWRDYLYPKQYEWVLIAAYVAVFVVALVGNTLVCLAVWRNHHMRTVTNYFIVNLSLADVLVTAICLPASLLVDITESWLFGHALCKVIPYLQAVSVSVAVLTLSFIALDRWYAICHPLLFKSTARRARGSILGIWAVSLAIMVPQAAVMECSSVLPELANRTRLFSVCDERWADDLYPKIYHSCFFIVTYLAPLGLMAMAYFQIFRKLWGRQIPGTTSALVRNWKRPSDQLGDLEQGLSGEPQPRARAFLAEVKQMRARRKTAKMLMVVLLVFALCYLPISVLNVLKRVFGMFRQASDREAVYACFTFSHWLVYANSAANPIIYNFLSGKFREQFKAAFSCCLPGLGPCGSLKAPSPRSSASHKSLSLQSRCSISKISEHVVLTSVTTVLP
# CHO-K1 = experiment: as §1, with “Homogeneous time resolved fluorescence (HTRF)-based” for “Fluorescence-based”, “cell-based” for “cell-based high throughput”, “CHO-K1” for “CHO”; format: functional; conditions: Cricetulus griseus;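 also: potency for inhibition of ATP-stimulated IP1 production as antagonists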
# Orexin receptor type 2 [4] = target: T1, Orexin receptor type 2; experiment: Counterscreen assay for antagonists of the orexin 1 receptor (OX1R; HCRTR1): Homogeneous Time Resolved Fluorescence (HTRF)-based cell-based dose response assay for antagonists of the orexin 2 receptor (OX2R; HCRTR2), run by assay provider.; format: functional
# [5] = target: T3, Orexin/Hypocretin receptor type 1; experiment: as §2, with “Homogeneous Time Resolved Fluorescence (HTRF)-based” for “Fluorescence-based”; format: functional
# HEK293 = experiment: inhibitors of LMP1-driven NF-kB reporter, dose response, cell-based, HEK293, luciferase, cherry-pick (AID 588343); format: functional; conditions: Homo sapiens
# [6] = target: T4, Sentrin-specific protease 8 (Homo sapiens, UniProt Q96LD8); format: functional;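 also: luminescence read-out of SENP8 inhibition, dose-response confirmation following an ultra-high-throughput screen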
# T4 sequence (Q96LD8 whole entry): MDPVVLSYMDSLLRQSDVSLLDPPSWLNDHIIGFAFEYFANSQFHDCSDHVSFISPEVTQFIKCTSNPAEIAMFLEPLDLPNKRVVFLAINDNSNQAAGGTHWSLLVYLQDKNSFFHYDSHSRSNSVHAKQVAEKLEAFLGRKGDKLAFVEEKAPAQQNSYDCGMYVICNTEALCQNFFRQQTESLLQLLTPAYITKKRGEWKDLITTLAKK
# [7] = target: T5, Sentrin-specific protease 6 (Homo sapiens, UniProt Q9GZR1); format: functional;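 also: Luminescence-based dose-response confirmatory assay of SENP6 inhibition, following up an ultra-high-throughput screen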
# T5 sequence (Q9GZR1 whole entry): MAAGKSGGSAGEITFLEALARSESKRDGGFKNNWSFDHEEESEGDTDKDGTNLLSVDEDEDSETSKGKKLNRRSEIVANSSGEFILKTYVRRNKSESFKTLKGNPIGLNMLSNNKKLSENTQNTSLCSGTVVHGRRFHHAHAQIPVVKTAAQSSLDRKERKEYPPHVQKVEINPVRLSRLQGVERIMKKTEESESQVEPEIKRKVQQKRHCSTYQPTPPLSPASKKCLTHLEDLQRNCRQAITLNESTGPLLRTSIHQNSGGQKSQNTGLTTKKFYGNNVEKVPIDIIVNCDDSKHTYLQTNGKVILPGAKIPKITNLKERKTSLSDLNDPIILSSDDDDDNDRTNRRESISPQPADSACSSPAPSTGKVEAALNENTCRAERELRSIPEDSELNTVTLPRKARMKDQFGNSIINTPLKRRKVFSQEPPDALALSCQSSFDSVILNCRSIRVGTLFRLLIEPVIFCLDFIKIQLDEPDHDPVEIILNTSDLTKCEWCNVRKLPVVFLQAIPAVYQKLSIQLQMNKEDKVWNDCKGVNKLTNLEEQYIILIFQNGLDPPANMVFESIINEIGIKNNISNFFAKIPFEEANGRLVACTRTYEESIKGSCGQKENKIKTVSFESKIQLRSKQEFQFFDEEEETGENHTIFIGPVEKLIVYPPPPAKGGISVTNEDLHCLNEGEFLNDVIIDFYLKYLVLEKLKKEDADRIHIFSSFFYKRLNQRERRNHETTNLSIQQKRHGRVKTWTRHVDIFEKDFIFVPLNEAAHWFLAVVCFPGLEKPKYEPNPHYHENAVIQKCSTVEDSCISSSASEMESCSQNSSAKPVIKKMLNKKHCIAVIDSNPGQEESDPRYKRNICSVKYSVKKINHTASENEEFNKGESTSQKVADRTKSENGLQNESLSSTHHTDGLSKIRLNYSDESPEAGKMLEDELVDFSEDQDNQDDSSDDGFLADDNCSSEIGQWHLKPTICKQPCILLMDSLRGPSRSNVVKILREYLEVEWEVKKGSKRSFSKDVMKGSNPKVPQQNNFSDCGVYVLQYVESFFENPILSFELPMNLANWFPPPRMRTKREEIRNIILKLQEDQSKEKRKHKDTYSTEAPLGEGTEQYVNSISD
# Caspase-3 = target: T6, Caspase-3 (Homo sapiens, UniProt P42574); format: functional;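 also: Dose-response selectivity test against caspase-3 for candidate inhibitors of sentrin-specific proteases (SENPs)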
# T6 sequence (P42574 whole entry): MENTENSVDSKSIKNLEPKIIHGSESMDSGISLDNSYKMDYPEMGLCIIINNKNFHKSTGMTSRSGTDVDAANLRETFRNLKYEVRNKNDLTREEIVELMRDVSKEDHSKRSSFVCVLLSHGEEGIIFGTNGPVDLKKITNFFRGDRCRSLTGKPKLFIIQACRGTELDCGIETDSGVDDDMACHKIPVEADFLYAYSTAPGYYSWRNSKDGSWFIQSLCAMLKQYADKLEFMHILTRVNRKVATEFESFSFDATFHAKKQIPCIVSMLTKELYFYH
# [8] = target: T7, Sentrin-specific protease 7 (Homo sapiens, UniProt Q9BQF6); format: functional;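 also: Luminescence-based dose-response confirmation of ultra-high-throughput screening hits, measuring inhibition of SENP7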
# T7 sequence (Q9BQF6 whole entry): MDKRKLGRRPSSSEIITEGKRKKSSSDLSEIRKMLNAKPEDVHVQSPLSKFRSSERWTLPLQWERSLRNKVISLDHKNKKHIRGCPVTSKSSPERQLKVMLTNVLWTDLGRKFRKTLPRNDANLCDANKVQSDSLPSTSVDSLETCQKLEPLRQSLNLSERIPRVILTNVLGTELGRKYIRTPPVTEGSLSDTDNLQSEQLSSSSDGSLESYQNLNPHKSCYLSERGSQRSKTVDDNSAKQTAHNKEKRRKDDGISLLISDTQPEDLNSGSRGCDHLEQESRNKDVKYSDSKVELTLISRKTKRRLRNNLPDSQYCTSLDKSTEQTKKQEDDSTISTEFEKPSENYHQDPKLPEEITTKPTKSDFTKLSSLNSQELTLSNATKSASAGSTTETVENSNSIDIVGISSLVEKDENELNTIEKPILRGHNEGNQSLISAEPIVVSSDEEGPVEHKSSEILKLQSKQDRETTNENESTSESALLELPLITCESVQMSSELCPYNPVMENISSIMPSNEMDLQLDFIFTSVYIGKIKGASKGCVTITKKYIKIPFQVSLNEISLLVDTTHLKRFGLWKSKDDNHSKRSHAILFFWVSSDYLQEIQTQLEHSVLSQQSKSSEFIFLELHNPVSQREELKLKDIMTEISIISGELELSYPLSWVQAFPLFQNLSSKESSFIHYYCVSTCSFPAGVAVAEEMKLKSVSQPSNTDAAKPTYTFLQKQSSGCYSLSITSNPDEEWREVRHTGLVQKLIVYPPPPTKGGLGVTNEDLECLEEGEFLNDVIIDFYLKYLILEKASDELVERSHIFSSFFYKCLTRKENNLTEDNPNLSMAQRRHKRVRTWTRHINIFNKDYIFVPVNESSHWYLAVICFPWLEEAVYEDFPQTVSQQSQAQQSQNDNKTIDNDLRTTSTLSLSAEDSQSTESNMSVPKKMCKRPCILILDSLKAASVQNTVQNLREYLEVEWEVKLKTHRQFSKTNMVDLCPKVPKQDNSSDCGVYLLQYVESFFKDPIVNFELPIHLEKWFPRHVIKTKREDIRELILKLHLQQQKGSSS
# [9] = HepG2 cell cytotoxicity, dose response, cytotoxicity control for Shn3 inhibitor project, CellTiter-Glo, cherry-picked (AID 624134); format: functional, cell-based
# [10] = Shn3 3'UTR reporter inhibitors, dose response, cell-based, Clone20 osteoblasts, firefly luciferase, cherry-picked (AID 624132); format: functional;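 also: firefly luciferase luminescence from reporter carrying the Shn3 3'UTR in osteoblasts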
# [11] = control 3'UTR Renilla luciferase suppression, dose response, counter-screen for Shn3 inhibitor project, cell-based, Clone20-Shn3RL, cherry-picked (AID 624133); format: functional
Structure (SMILES),IC50 [1],IC50 (Orexin receptor type 2 [2]),IC50 [3],IC50 (CHO-K1),IC50 (Orexin receptor type 2 [4]),IC50 [5],also measured
Cc1cccc(NC(=O)NNC(=O)c2cc(-c3ccccc3Cl)nc3ccccc23)c1,48 µM (inactive),16.4 µM (inactive),13.5 µM (inactive),> 66.3 µM (inactive),27.1 µM (inactive),815 nM (active),AC50 (Cytochrome P450 1A2): 15.8 µM (inconclusive)
C=CCn1c(SCC(=O)Nc2cc3oc4ccccc4c3cc2OC)nnc1-c1cnccn1,> 49.7 µM (inactive),10.4 µM (inactive),3.14 µM (active),> 66.2 µM (inactive),> 50 µM (inactive),339 nM (active),–
N=C(NOC(=O)c1cccc(Br)c1)c1ccccn1,–,–,–,–,–,–,AC50 (HEK293): 21.8 µM (active)
Cc1c(C(=O)O)cccc1-c1ccc(/C=C2/NC(=O)N(c3ccccc3)C2=O)o1,–,–,–,–,–,–,IC50 [6]: 45 µM (active); IC50 [7]: 28.6 µM (active); IC50 (Caspase-3): > 100 µM (inactive); IC50 [8]: 21.2 µM (active)
CSc1cccc(NC(=O)C2CCCN(S(=O)(=O)c3ccc(F)cc3)C2)c1 (configuration not stated),> 49.8 µM (inactive),8.4 µM (active),10.4 µM (inactive),> 66.2 µM (inactive),14.2 µM (inactive),1590 nM (active),–
O=C(O)c1ccc(-c2ccc(OS(=O)(=O)c3ccccc3F)cc2)cc1,–,–,–,–,–,–,IC50 [6]: 56.4 µM (active); IC50 [7]: 35 µM (active); IC50 (Caspase-3): > 100 µM (inactive); IC50 [8]: 6.6 µM (active)
CCCCC(=O)NC(c1ccc(OC)c(OC)c1)c1ccc2cccnc2c1O (configuration not stated),–,–,–,–,–,–,AC50 (HEK293): 7.93 µM (active); AC50 [9]: 60.1 µM (active); AC50 [10]: 1.36 µM (active); AC50 [11]: 1.4 µM (active)
